Measured values published in US20230183239A1, “ECTONUCLEOTIDE PYROPHOSPHATASE-PHOSPHODIESTERASE 1 (ENPP-1) INHIBITORS AND USES THEREOF” (AbbVie Inc., priority 2017, published 2023).

Legend:
Assay type in all cases: biochemical
ENPP1 [1] = molecular target: T1, ENPP1 (Homo sapiens, UniProt P22413); assay: Indirect quantitation of 2',3'-cGAMP hydrolysis (AMP-Glo Assay kit)
T1 sequence (P22413 1-925): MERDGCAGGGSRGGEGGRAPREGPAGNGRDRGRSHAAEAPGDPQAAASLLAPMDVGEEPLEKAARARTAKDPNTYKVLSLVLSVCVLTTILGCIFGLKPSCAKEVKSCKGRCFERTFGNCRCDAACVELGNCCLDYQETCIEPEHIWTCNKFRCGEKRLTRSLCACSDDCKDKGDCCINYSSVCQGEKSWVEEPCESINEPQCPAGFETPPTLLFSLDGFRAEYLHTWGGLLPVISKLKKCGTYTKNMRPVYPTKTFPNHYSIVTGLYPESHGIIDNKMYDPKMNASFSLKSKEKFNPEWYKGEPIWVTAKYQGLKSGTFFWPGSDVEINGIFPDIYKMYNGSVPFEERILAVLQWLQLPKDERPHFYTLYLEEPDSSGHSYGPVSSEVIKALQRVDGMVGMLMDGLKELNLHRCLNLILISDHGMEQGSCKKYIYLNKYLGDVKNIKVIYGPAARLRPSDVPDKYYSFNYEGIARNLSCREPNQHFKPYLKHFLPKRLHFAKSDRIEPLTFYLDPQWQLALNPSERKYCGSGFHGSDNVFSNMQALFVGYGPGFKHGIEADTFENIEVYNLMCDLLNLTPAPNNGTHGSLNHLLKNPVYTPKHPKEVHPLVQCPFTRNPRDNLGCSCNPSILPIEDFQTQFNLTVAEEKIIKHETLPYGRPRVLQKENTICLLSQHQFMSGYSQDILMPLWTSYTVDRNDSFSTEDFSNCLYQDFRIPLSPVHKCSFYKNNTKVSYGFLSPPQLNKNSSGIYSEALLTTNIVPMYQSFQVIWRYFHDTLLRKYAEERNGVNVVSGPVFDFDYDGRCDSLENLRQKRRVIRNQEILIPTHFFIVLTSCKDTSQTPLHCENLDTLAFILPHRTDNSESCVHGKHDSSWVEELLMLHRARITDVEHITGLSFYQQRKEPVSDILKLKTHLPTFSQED

ENPP1 [2] = molecular target: T1, ENPP1; assay: ENPP1 enzyme assay with AMP-pNP substrate (hydrolysis of ATP analog)
Protocol: The ENPP1 assay with AMP-pNP substrate is conducted in a buffer containing 50 mM Tris-HCl (pH 8.5)/ 250 mM NaCl/0.5 mM CaCl2/1 µM ZnCl2/0.1% DMSO. Inhibitors are added at final concentrations ranging between 10 µM and 30 pM depending on the compound. Duplicate wells are run at each inhibitor concentration. The final assay volume is 40 µL and human recombinant ENPP1 is present at 60 ng/well. The assay is initiated by the addition of substrate (300 µM AMP-pNP final concentration), and incubated for 20 minutes at 37° C. […] Each assay plate also includes wells with no enzyme added (MIN OD) and wells with no inhibitor added (MAX OD). The percent inhibition of ENPP1 for each sample is then calculated as: […]
IC50 values of compounds were calculated by entering the percent inhibition values into a sigmoidal variable slope nonlinear regression model in GraphPad Prism® software.

ENPP1 [3] = molecular target: T1, ENPP1; assay: Substrate selectivity ratio, inhibition of cGAMP hydrolysis versus ATP hydrolysis; conditions: ratio Ki AMP-pNP / Ki cGAMP
Protocol: The selectivity ratios for inhibition of cGAMP hydrolysis versus ATP hydrolysis were then calculated as follows: […]

[4] = cGAMP substrate, Ki from IC50 by Cheng-Prusoff, read-out: ENPP1 Inhibition -cGAMP: Ki
[5] = AMP-pNP substrate (ATP analog), Ki from IC50 by Cheng-Prusoff, read-out: ENPP1 Inhibition _AMP-pNP: Ki

| SMILES | Ki (ENPP1 [1]; [4]) [nM] | Ki (ENPP1 [2]; [5]) [nM] | Substrate Selectivity: Ki_AMP-pNP/Ki_cGAMP (ENPP1 [3]) | Ki (ENPP1 [1]) [nM] | Ki (ENPP1 [2]) [nM] |
| --- | --- | --- | --- | --- | --- |
| COc1cc2ncnc(N3CCN(C(=O)CNS(N)(=O)=O)CC3)c2cc1OC [Example 52, N-(2-(4-(6,7-dimethoxyquinazolin-4-yl)piperazin-1-yl)-2-oxoethyl)sulfamide] |  |  | 58.1 | < 100 | 100 to 1000 |
| COc1ccc2c(N3CCc4cc(NS(N)(=O)=O)ccc43)ccnc2c1 [Example 59, N-(1-(7-methoxyquinolin-4-yl)indolin-5-yl)sulfamide] | < 100 | < 100 | 29.6 |  |  |
| COc1ccc2c(-c3ccc(CNS(N)(=O)=O)c(F)c3)ccnc2c1 [Example 62, N-(2-fluoro-4-(7-methoxyquinolin-4-yl)benzyl)sulfamide] | < 100 | < 100 | 16.1 |  |  |
| COc1cc2nccc(N3CCc4cc(NS(N)(=O)=O)ccc43)c2cc1F [Example 72, N-(1-(6-fluoro-7-methoxyquinolin-4-yl)indolin-5-yl)sulfamide] | < 100 | < 100 | 11.9 |  |  |
| COc1ccc2c(Oc3ccc(NS(N)(=O)=O)cc3)ccnc2n1 [Example 73, N-(4-((7-methoxy-1,8-naphthyridin-4-yl)oxy)phenyl)sulfamide] | < 100 | < 100 | 24.2 |  |  |
| COc1cc2nccc(Oc3ccc(S(N)(=O)=O)cc3)c2cc1F [Example 74, 4-((6-fluoro-7-methoxyquinolin-4-yl)oxy)benzenesulfonamide] | < 100 | < 100 | 22.5 |  |  |
| COc1ccc2c(Oc3ccc(NS(N)(=O)=O)c(Cl)c3)ccnc2c1 [Example 75, N-(2-chloro-4-((7-methoxyquinolin-4-yl)oxy)phenyl)sulfamide] | < 100 | 100 to 1000 | 41.3 |  |  |
| COc1cc2nccc(Oc3ccc(NS(=O)(=O)c4ccccc4)cc3)c2cc1OC [Example 86, N-(4-((6,7-dimethoxyquinolin-4-yl)oxy)phenyl)benzenesulfonamide] | < 100 | 100 to 1000 | >43.2 |  |  |
| COc1cc2ncnc(Nc3ccc(NS(N)(=O)=O)cc3)c2cc1OC [Example 114, N-(4-((6,7-dimethoxyquinazolin-4-yl)amino)phenyl)sulfamide] | < 100 | > 1000 | >42.7 |  |  |
| COc1cc2ncn(-c3ccc(CNS(N)(=O)=O)cc3)c2cc1OC [Example 120, N-(4-(5,6-dimethoxy-1H-benzo[d]imidazol-1-yl)benzyl)sulfamide] | < 100 | > 1000 | 54.5 |  |  |
| COc1cc2ncnc(-c3ccc4c(c3)CCN(S(N)(=O)=O)C4)c2cc1OC [Example 121, 6-(6,7-dimethoxyquinazolin-4-yl)-3,4-dihydroisoquinoline-2(1H)-sulfonamide] | < 100 | > 1000 | >61.5 |  |  |
| COc1cc2ncnc(-c3ccc4c(c3)CC(NS(N)(=O)=O)C4)c2cc1OC (stereo not drawn) [Example 122, N-(5-(6,7-dimethoxyquinazolin-4-yl)-2,3-dihydro-1H-inden-2-yl)sulfamide] | < 100 | 100 to 1000 | 21.9 |  |  |
| COc1cc2nccc(Oc3ccc(NS(N)(=O)=O)cc3)c2cc1OC [Example 125, N-(4-((6,7-dimethoxyquinolin-4-yl)oxy)phenyl)sulfamide] | < 100 | > 1000 | >562 |  |  |

More lines, main results first:

| Ki (ENPP1 [1]; [4]) [nM] | Ki (ENPP1 [2]; [5]) [nM] | Substrate Selectivity: Ki_AMP-pNP/Ki_cGAMP (ENPP1 [3]) | SMILES | Ki (ENPP1 [1]) [nM] | Ki (ENPP1 [2]) [nM] |
| --- | --- | --- | --- | --- | --- |
| < 100 | > 1000 | > 31.4 | COc1cc2ncnc(NC(C)c3ccc(NS(N)(=O)=O)cc3)c2cc1OC (stereo in doubt) [Example 254, (S)-N-(4-(1-((6,7-dimethoxyquinazolin-4-yl)amino)ethyl)phenyl)sulfamide] |  |  |
| < 100 | > 1000 | >95.8 | COc1cc2ncc(C(N)=O)c(N3CCC(CCNS(N)(=O)=O)CC3)c2cc1OC [Example 19, 6,7-dimethoxy-4-(4-(2-(sulfamoylamino)ethyl)piperidin-1-yl)quinoline-3-carboxamide] |  |  |
| < 100 | < 100 | 6.3 | COc1cc2nccc(NCc3ccc(S(N)(=O)=O)cc3)c2cc1F [Example 56, 4-(((6-fluoro-7-methoxyquinolin-4-,yl)amino)methyl)benzenesulfonamide] |  |  |
| < 100 | < 100 | 16.7 | COc1cc2ncc(C)c(-c3ccc4c(c3)CN(S(N)(=O)=O)CC4)c2cc1OC [Example 60, 7-(6,7-dimethoxy-3-methylquinolin-4-yl)-3,4-dihydroisoquinoline-2(1H)-sulfonamide] |  |  |
| < 100 | < 100 | 23.7 | COc1cc2nccc(-c3ccc(CN(C)S(N)(=O)=O)cc3)c2cc1OC [Example 61, N-(4-(6,7-dimethoxyquinolin-4-yl)benzyl)-N-methylsulfamide] |  |  |
| < 100 | < 100 | 28.0 | COc1ccc2c(-c3ccc(CNS(N)(=O)=O)cc3)ccnc2n1 [Example 63, N-(4-(7-methoxy-1,8-naphthyridin-4-yl)benzyl)sulfamide] |  |  |
| < 100 | < 100 | 11.9 | COc1cc2ncc(C#N)c(N3CCC4(CC3)CCN(S(N)(=O)=O)C4)c2cc1OC [Example 64, 8-(3-cyano-6,7-dimethoxyquinolin-4-yl)-2,8-diazaspiro [4.5] decane-2-sulfonamide] |  |  |
| < 100 | < 100 | 38.7 | COc1ccc2c(N3CCC4(CC3)CCN(S(N)(=O)=O)C4)ncnc2c1 [Example 65, 8-(7-methoxyquinazolin-4-yl)-2,8-diazaspiro [4.5] decane-2-sulfonamide] |  |  |
| < 100 | < 100 | 35.1 | COc1cc2ncc(F)c(N3CCC(CCNS(N)(=O)=O)CC3)c2cc1OC [Example 66, N-(2-(1-(3-fluoro-6,7-dimethoxyquinolin-4-yl)piperidin-4-yl)ethyl)sulfamide] |  |  |
| < 100 | < 100 | 67.2 | COc1cc2ncc(F)c(-c3ccc(CNS(N)(=O)=O)cc3)c2cc1OC [Example 67, N-(4-(3-fluoro-6,7-dimethoxyquinolin-4-yl)benzyl)sulfamide] |  |  |
| < 100 | < 100 | 8.9 | COc1cc2nccc(-c3ccc(CNS(N)(=O)=O)c(F)c3)c2cc1OC [Example 69, N-(4-(6,7-dimethoxyquinolin-4-yl) -2-fluorobenzyl)sulfamide] |  |  |
| < 100 | < 100 | 15.5 | COc1ccc2ncnc(N3CCC4(CC3)CCN(S(N)(=O)=O)C4)c2c1 [Example 70, 8-(6-methoxyquinazolin-4-yl)-2,8-diazaspiro [4.5] decane-2-sulfonamide] |  |  |
| < 100 | < 100 | 13.3 | COc1ccc2c(Oc3ccc(NS(N)(=O)=O)cc3F)ccnc2c1 [Example 71, N-(3-fluoro-4-((7-methoxyquinolin-4-yl)oxy)phenyl)sulfamide] |  |  |
